Assay [1] has as its system mutated GABAA receptors. Put plainly: Time course of covalent reaction at the binding level (preliminary experiments). The following applies: 10 µM and 1 µM 3-NCS, not shown. As for the experimental part:
(§1) As detailed in previous work, [30], [33] this procedure included three steps: incubation of membranes expressing recombinant wild type or mutant receptors with the reactive agent followed by extensive washing of the membranes in order to remove non-reacted compound and a radioactive ligand binding assay to determine residual binding. No covalent reaction would result in 100% residual binding, and 100% covalent reaction would result in 0% residual binding.
Briefly, the membranes were re-suspended in phosphate buffer (100 mM KCl, 10 mM KH2PO4, 0.1 mM EDTA, pH 7.4) using a Glass/Teflon homogenizer. 0.1–1.0 mg/mL of protein were incubated in a total volume of 360 µL with either 10 µM (determination of degree of covalent reaction) or several concentrations of 3-NCS for 30 min on ice. Membranes were collected with rapid filtration on a round 7 mm diameter glass fiber filter (GF/C; Whatman) that was placed on a round 24 mm diameter glass fiber filter (GF/C; Whatman), both pre-washed with phosphate buffer. […] Radioactivity was determined by liquid scintillation counting. Non-specific binding was determined in the presence of 100 µM Ro 15–1788. In control experiments, washing efficiency was estimated by placing radioactivity on the small filter. More than 99.95% of the radioactivity was removed (not shown).

The target of assay [2] is T1, α2β2γ2 receptors (Rattus norvegicus, UniProt P18508+P23576).
T1 construct: expressed in transfected cells; host or cells: HEK293 cells (ATCC CRL 1573), membranes
T1 sequence (P23576 29-451): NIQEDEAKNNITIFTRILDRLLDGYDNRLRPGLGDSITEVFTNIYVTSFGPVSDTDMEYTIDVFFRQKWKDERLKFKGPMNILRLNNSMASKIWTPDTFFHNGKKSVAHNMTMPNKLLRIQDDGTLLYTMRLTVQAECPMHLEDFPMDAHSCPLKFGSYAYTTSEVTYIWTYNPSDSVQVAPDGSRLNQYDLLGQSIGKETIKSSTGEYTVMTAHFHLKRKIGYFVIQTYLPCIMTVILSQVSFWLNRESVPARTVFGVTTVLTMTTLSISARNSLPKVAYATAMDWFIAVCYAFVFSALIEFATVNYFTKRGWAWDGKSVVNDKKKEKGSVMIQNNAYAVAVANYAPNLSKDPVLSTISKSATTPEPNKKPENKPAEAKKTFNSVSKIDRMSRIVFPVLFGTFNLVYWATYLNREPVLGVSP
T1 sequence (P63138 25-474 partner limits assumed): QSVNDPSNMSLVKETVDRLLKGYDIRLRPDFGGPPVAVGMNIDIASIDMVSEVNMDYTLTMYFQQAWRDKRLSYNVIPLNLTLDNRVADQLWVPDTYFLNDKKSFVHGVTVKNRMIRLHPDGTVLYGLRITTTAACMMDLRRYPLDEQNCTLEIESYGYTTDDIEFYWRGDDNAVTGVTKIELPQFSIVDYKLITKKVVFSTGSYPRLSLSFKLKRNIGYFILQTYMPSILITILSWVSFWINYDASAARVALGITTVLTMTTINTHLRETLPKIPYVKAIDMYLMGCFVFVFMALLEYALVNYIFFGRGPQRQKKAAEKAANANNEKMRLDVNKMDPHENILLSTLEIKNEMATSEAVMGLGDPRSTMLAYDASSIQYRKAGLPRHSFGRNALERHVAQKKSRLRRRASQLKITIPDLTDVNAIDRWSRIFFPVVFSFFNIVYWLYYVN
T1 sequence (P18508 39-466): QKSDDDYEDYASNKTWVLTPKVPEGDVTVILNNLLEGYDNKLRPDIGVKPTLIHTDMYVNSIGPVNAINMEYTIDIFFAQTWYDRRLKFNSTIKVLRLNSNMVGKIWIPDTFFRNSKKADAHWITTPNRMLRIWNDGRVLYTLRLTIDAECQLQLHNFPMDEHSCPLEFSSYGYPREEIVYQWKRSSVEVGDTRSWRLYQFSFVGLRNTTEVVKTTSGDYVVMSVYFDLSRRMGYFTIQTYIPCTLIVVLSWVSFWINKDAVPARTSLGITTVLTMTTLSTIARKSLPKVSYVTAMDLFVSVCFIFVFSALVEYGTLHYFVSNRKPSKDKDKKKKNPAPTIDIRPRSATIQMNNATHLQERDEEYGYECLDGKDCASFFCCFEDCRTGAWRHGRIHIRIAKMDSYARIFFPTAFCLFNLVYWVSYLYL
Put plainly: Radioactive ligand binding / displacement of [^3H]Ro 15–1788. The method, then: For α5 containing receptors β2 was replaced by β1. […] Culturing of cells and membrane preparation were done as described before.
The properties of the recombinant mutant receptors were only estimated. For this affinity estimate, membranes were re-suspended in phosphate buffer using a Teflon homogenizer. […] The final protein concentration was 0.1–1 mg of protein/ml. […] Membranes were collected by rapid vacuum filtration on GF/C filters. After three washing steps (3 sec each) with 5 ml of phosphate buffer, the filter-retained radioactivity was determined by liquid scintillation counting.

The target in assay [3] is T2, α2S205Cβ2γ2 GABAA receptor (Rattus norvegicus, UniProt P18508+P23576, S233C). Put plainly: Covalent reaction of 3-NCS at the binding level (residual radioligand binding, HEK293 membranes). As for the experimental part:
cDNAs coding for the αx (x = 1, 2, 3, 6), β2, and γ2S subunits DNA (20 µg : 20 µg : 20 µg) per 9 cm diameter dish were transfected in human embryonic kidney (HEK) 293 cells (American Type of Culture Collection, MD, USA, CRL 1573) using the calcium phosphate precipitation technique. For α5 containing receptors β2 was replaced by β1. […] Culturing of cells and membrane preparation were done as described before.
as §1
Briefly, the membranes were re-suspended in phosphate buffer (100 mM KCl, 10 mM KH2PO4, 0.1 mM EDTA, pH 7.4) using a Glass/Teflon homogenizer. 0.1–1.0 mg/mL of protein were incubated in a total volume of 360 µL with either 10 µM (determination of degree of covalent reaction) or several concentrations of 3-NCS for 30 min on ice. Membranes were collected with rapid filtration on a round 7 mm diameter glass fiber filter (GF/C; Whatman) that was placed on a round 24 mm diameter glass fiber filter (GF/C; Whatman), both pre-washed with phosphate buffer. The reaction of 3-NCS with the receptor was stopped by washing of the filters six times with 5 mL phosphate buffer, each. The small filters with the deposited membranes were incubated in 0.12 mL phosphate buffer containing 5 nM [^3H]Ro15–1788. After 30 min the 7 mm filter was placed on a 24 mm filter and washed six times with 5 mL phosphate buffer each. Radioactivity was determined by liquid scintillation counting. Non-specific binding was determined in the presence of 100 µM Ro 15–1788. In control experiments, washing efficiency was estimated by placing radioactivity on the small filter. More than 99.95% of the radioactivity was removed (not shown).
Concentration response curves for 3-NCS were fitted with the equation C(c) = Cmax/(1+(EC50/c)), where c is the concentration of 3-NCS, EC50 the concentration of 3-NCS where half maximal covalent reaction was observed, Cmax is the maximal extent of the covalent reaction and C the measured extent of the covalent reaction.

For assay [4], the target named is T2, α2S205Cβ2γ2 GABAA receptor. Put plainly: Covalent reaction at the functional level (two-electrode voltage clamp, Xenopus oocytes). In kind it is cell-based. The following applies: after 10 µM 3-NCS and removal of non-covalently reacted 3-NCS; read-out: % allosteric modulation, 3-NCS. As for the experimental part:
(§2) Capped cRNAs were synthesized (Ambion, Austin, TX, USA) from the linearized plasmids with a cytomegalovirus promotor (pCMVvectors) containing the different subunits, respectively. A poly-A tail of about 400 residues was added to each transcript using yeast poly- A polymerase (United States Biologicals, Cleveland, OH, USA). The concentration of the cRNA was quantified on a formaldehyde gel using Radiant Red stain (Bio-Rad) for visualization of the RNA. Known concentrations of RNA ladder (Invitrogen) were loaded as standard on the same gel. cRNAs were precipitated in ethanol/isoamylalcohol 19∶ 1, the dried pellet dissolved in water and stored at −80°C. cRNA mixtures were prepared from these stock solutions and stored at −80°C. Xenopus laevis oocytes were prepared, injected and defolliculated as described previously, [39]. They were injected with 50 nL of the cRNA solution containing wild type or mutated α1 or α2, α3, α5, α6 and wild type β2 and γ2 subunits at a concentration of 10 nM : 10 nM : 50 nM [40] and then incubated in modified Barth’s solution at +18°C for at least 24 h before the measurements.
(§3) Tests with a model oocyte were performed to ensure linearity in the larger current range.
(§4) Electrophysiological experiments were performed by using the two-electrode voltage clamp method at a holding potential of −80 mV. The perfusion medium contained 90 mM NaCl, 1 mM KCl, 1 mM MgCl2, 1 mM CaCl2, and 5 mM Na-HEPES (pH 7.4) and was applied by gravity flow 6 ml/min. The perfusion medium was applied through a glass capillary with an inner diameter of 1.35 mm, the mouth of which was placed about 0.4 mm from the surface of the oocyte. Allosteric modulation via the benzodiazepine site was measured at a GABA concentration eliciting 2–5% of the maximal GABA current amplitude.
(In general: In two-electrode clamp one electrode senses voltage and the other passes current.)

The target of assay [5] is α2T206Cβ2γ2 GABAA receptor (Rattus norvegicus, UniProt P18508+P23576, T234C). Described as above. In kind it is cell-based. The following applies: after 10 µM 3-NCS and removal of non-covalently reacted 3-NCS; read-out: % allosteric modulation, 3-NCS. As for the experimental part:
as §2, §3, §4

The target of assay [6] is α1T206Cβ2γ2 GABAA receptor (Rattus norvegicus, UniProt P18508+P62813, T233C). Described as above. The assay is classed as cell-based. Particulars: after 10 µM 3-NCS and removal of non-covalently reacted 3-NCS; read-out: % allosteric modulation, 3-NCS. The method, then:
as §2, §3, §4

The target in assay [7] is α1S205Cβ2γ2 GABAA receptor (Rattus norvegicus, UniProt P18508+P62813, S232C). The assay is described as above. In kind it is cell-based. The following applies: after 10 µM 3-NCS and removal of non-covalently reacted 3-NCS; read-out: % allosteric modulation, 3-NCS. The method, then: as §2, §3, §4
Sequence of α1S205Cβ2γ2 GABAA receptor (P62813 28-455 S232C): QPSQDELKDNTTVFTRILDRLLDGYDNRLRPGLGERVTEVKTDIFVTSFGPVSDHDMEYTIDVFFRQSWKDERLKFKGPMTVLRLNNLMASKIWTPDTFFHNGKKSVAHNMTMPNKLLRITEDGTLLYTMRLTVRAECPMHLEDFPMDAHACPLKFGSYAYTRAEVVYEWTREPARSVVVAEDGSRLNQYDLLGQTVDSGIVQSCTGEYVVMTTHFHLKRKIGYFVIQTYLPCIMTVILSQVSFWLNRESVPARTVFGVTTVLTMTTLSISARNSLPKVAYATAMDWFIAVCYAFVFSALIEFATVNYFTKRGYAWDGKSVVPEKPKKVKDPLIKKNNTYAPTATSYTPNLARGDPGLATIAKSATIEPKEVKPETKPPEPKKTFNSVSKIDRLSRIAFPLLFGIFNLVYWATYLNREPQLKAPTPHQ
Sequence of α1S205Cβ2γ2 GABAA receptor (P18508 39-466): as the sequence (P18508 39-466) above
Sequence of α1S205Cβ2γ2 GABAA receptor (P63138 26-474 partner): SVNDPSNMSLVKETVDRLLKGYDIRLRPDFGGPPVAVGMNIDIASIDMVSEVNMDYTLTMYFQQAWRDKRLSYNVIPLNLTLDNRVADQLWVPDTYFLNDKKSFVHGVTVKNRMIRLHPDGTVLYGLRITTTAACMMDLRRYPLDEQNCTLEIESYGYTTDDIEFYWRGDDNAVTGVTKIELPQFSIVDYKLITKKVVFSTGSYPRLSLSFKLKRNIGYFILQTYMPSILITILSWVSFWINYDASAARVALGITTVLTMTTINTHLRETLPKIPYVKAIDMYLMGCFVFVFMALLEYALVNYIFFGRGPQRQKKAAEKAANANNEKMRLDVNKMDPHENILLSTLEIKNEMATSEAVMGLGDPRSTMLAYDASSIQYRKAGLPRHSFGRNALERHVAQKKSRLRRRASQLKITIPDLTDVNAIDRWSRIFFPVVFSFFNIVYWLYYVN
For assay [8], the target named is α2S204Cβ2γ2 GABAA receptor (Rattus norvegicus, UniProt P18508+P23576, S232C). The assay is described as above. The following applies: after 10 µM 3-NCS and removal of non-covalently reacted 3-NCS; read-out: % allosteric modulation, 3-NCS. In kind it is cell-based. As for the experimental part:
as §2, §3, §4

T2 sequence (P23576 29-451 S233C): as the sequence (P23576 29-451) above, with S205C counted along it
T2 sequence (P18508 39-466, stated change not applied): as the sequence (P18508 39-466) above
T2 sequence (P63138 26-474 partner): as the sequence (P63138 26-474 partner) above
Sequence of α1T206Cβ2γ2 GABAA receptor (P62813 28-455 T233C): as the sequence (P62813 28-455 S232C) above, with C205S, T206C counted along it
Sequence of α1T206Cβ2γ2 GABAA receptor (P18508 39-466): as the sequence (P18508 39-466) above
Sequence of α1T206Cβ2γ2 GABAA receptor (P63138 26-474 partner): as the sequence (P63138 26-474 partner) above
Sequence of α2T206Cβ2γ2 GABAA receptor (P23576 29-451 T234C): as the sequence (P23576 29-451) above, with T206C counted along it
Sequence of α2T206Cβ2γ2 GABAA receptor (P18508 39-466): as the sequence (P18508 39-466) above
Sequence of α2T206Cβ2γ2 GABAA receptor (P63138 26-474 partner): as the sequence (P63138 26-474 partner) above
Sequence of α2S204Cβ2γ2 GABAA receptor (P23576 29-451 S232C): as the sequence (P23576 29-451) above, with S204C counted along it
Sequence of α2S204Cβ2γ2 GABAA receptor (P18508 39-466): as the sequence (P18508 39-466) above
Sequence of α2S204Cβ2γ2 GABAA receptor (P63138 26-474 partner): as the sequence (P63138 26-474 partner) above

For orientation: Ki means a dissociation constant, usually derived from enzyme kinetics or from competition with a known ligand. Usually EC50 stands for the concentration needed to bring the measured effect to its halfway point. Take `CN1C(=O)C(N=C=S)N=C(c2ccccc2)c2cc([N+](=O)[O-])ccc21` (stereo not drawn) [3-NCS]: in assay [1], the “Time to maximum of covalent reaction” value is not above 15 s. Further, in assay [2], the Ki was found to be 1.55 ± 0.25 µM. In assay [3] (3-NCS 30 min on ice, washed, residual [^3H]Ro15–1788 binding), a half-maximal effect (EC50) was put at 6.6 ± 5.4 µM. In addition, in assay [3] (0.5 h, 10 µM 3-NCS, mutation homologous to α1S205, n = 3, read-out: Extent of covalent reaction (100% minus % residual binding)), the inhibition at 10 µM amounted to 39%. In addition, the activation at 10 µM in assay [4] is 35 ± 10%; in assay [5], 53 ± 29%; in assay [6], 119 ± 51%; in assay [7], 60 ± 43%; in assay [8], 1 ± 10%.

The record behind these values is publication PMC3407089, “Influence of GABAA Receptor α Subunit Isoforms on the Benzodiazepine Binding Site” (PLoS ONE, 2012).
